According to patent publication US12295936B2, “Immunomodulating urea azalides” (Zoetis Services LLC, priority 2020, dated 2025):
Read-outs that look alike come from different tables or passages of the source.

Tests used:
IL-6 = assay: LPS-stimulated whole bovine blood assay, MSD cytokine detection; format: cell-based; conditions: read-out: IL-6 (IC50 μM)
Excerpt: In order to correlate RNA sequencing data to cytokine changes the whole blood assay was utilized. […] The enhancement result represents an overall stimulation of cytokine levels due to cellular stress or potential toxicity with increasing concentrations of the compound, representing a typical bell shape response curve for immunomodulatory activity.

IL-1β = assay: as above; format: cell-based; conditions: overstimulation of IL-1β, LPS-stimulated bovine whole blood
[1] = tested on: BRD pathogens, M. haemolytica and P. multocida; assay: MIC screening panel of BRD pathogens (antibacterial / non-antibacterial)
TNF-α = assay: LPS-stimulated whole bovine blood assay, MSD cytokine detection; format: cell-based; conditions: read-out: TNF-α (IC50 μM)
[2] = Bos taurus, LPS-stimulated bovine whole blood
[3] = read-out: antibacterial / non-antibacterial (MIC for the BRD pathogens)
[4] = LPS-stimulated bovine whole blood

Row | Compound | IC50 (IL-6; [2]) [µM] | IL-1β OS of LPS (IL-1β) [µM] | MIC [1, 3] [µg/mL] | IC50 (TNF-α; [2]) [µM] | IC50 (IL-6; Bos taurus) [µM] | MIC ([1]; read-out: MIC ≤64 μg/mL for at least one of the bacterial strains (flag * at Ex #)) [µg/mL] | IC50 (TNF-α; Bos taurus) [µM] | IC50 (IL-6; [4]) [µM] | IC50 (TNF-α; [4]) [µM]
1 | CC[C@H]1OC(=O)[C@H](C)[C@@H](O[C@H]2C[C@@](C)(OC)[C@](O)(CCl)[C@H](C)O2)[C@H](C)[C@@H](O[C@@H]2O[C@H](C)C[C@H](N(C)C(=O)N(C)c3ccccc3)[C@H]2O)[C@](C)(O)C[C@@H](C)CN[C@H](C)[C@@H](O)[C@]1(C)O [Example E-2, 1-((2S,3R,4S,6R)-2-(((2R,3S,4R,5R,8R,10R,11R,12S,13S,14R)-13-(((2R,4R,5S,6S)-5-(chloromethyl)-5-hydroxy-4-methoxy-4,6-dimethyltetrahydro-2H-pyran-2-yl)oxy)-2-ethyl-3,4,10-trihydroxy-3,5,8,10,12,14-hexamethyl-15-oxo-1-oxa-6-azacyclopentadecan-11-yl)oxy)-3-hydroxy-6-methyltetrahydro-2H-pyran-4-yl)-1,3-dimethyl-3-phenylurea] | 35 | 40 | > 64 | 40 |  |  |  |  | 
2 | CCCNC[C@]1(O)[C@H](C)O[C@@H](O[C@H]2[C@H](C)[C@@H](O[C@@H]3O[C@H](C)C[C@H](N(C)C(=O)N(C)c4ccncc4)[C@H]3O)[C@](C)(O)C[C@@H](C)CN[C@H](C)[C@@H](O)[C@](C)(O)[C@@H](CC)OC(=O)[C@@H]2C)C[C@@]1(C)OC [Example H-59, 1-((2S,3R,4S,6R)-2-(((2R,3S,4R,5R,8R,10R,11R,12S,13S,14R)-2-ethyl-3,4,10-trihydroxy-13-(((2R,4R,5S,6S)-5-hydroxy-4-methoxy-4,6-dimethyl-5-((propylamino)methyl)tetrahydro-2H-pyran-2-yl)oxy)-3,5,8,10,12,14-hexamethyl-15-oxo-1-oxa-6-azacyclopentadecan-11-yl)oxy)-3-hydroxy-6-methyltetrahydro-2H-pyran-4-yl)-1,3-dimethyl-3-(pyridin-4-yl)urea] | 30 | 16 | > 64 | 9 |  |  |  |  | 
3 | CC[C@H]1OC(=O)[C@H](C)[C@@H](O[C@H]2C[C@@](C)(OC)[C@](O)(Cn3ccnc3)[C@H](C)O2)[C@H](C)[C@@H](O[C@@H]2O[C@H](C)C[C@H](N(C)C(=O)N(C)c3ccccc3)[C@H]2O)[C@](C)(O)C[C@@H](C)CN[C@H](C)[C@@H](O)[C@]1(C)O [Example J-24, 1-((2S,3R,4S,6R)-2-(((2R,3S,4R,5R,8R,10R,11R,12S,13S,14R)-13-(((2R,4R,5S,6S)-5-((1H-imidazol-1-yl)methyl)-5-hydroxy-4-methoxy-4,6-dimethyltetrahydro-2H-pyran-2-yl)oxy)-2-ethyl-3,4,10-trihydroxy-3,5,8,10,12,14-hexamethyl-15-oxo-1-oxa-6-azacyclopentadecan-11-yl)oxy)-3-hydroxy-6-methyltetrahydro-2H-pyran-4-yl)-1,3-dimethyl-3-phenylurea] | 99 | 100 | > 64 | 31 |  |  |  |  | 
4 | CC[C@H]1OC(=O)[C@H](C)[C@@H](O[C@H]2C[C@@](C)(OC)[C@](O)(CN3CCCCC3)[C@H](C)O2)[C@H](C)[C@@H](O[C@@H]2O[C@H](C)C[C@H](N(C)C(=O)N(C)c3ccccc3)[C@H]2O)[C@](C)(O)C[C@@H](C)CN[C@H](C)[C@@H](O)[C@]1(C)O [Example J-18, 1-((2S,3R,4S,6R)-2-(((2R,3S,4R,5R,8R,10R,11R,12S,13S,14R)-2-ethyl-3,4,10-trihydroxy-13-(((2R,4R,5S,6S)-5-hydroxy-4-methoxy-4,6-dimethyl-5-(piperidin-1-ylmethyl)tetrahydro-2H-pyran-2-yl)oxy)-3,5,8,10,12,14-hexamethyl-15-oxo-1-oxa-6-azacyclopentadecan-11-yl)oxy)-3-hydroxy-6-methyltetrahydro-2H-pyran-4-yl)-1,3-dimethyl-3-phenylurea] |  | >250 |  |  | 17 | < 64 | 16 |  | 
5 | 3-ethyl-1-((2S,3R,4S,6R)-2-(((2R,3S,4R,5R,8R,10R,11R,12S,13S,14R)-2-ethyl-3,4,10-trihydroxy-13-(((2R,4R,5S,6S)-5-hydroxy-4-methoxy-4,6-dimethyl-5-((4-methylpiperazin-1-yl)methyl)tetrahydro-2H-pyran-2-yl)oxy)-3,5,8,10,12,14-hexamethyl-15-oxo-1-oxa-6-azacyclopentadecan-11-yl)oxy)-3-hydroxy-6-methyltetrahydro-2H-pyran-4-yl)-1-methylurea [Example J-9] |  | >500 |  |  |  |  |  | > 500 | > 500
6 | CC[C@H]1OC(=O)[C@H](C)[C@@H](O[C@H]2C[C@@](C)(OC)[C@](O)(Cn3ccnn3)[C@H](C)O2)[C@H](C)[C@@H](O[C@@H]2O[C@H](C)C[C@H](N(C)C(=O)N(C)c3ccccc3)[C@H]2O)[C@](C)(O)C[C@@H](C)CN[C@H](C)[C@@H](O)[C@]1(C)O [Example J-28, 1-((2S,3R,4S,6R)-2-(((2R,3S,4R,5R,8R,10R,11R,12S,13S,14R)-13-(((2R,4R,5S,6S)-5-((1H-1,2,3-triazol-1-yl)methyl)-5-hydroxy-4-methoxy-4,6-dimethyltetrahydro-2H-pyran-2-yl)oxy)-2-ethyl-3,4,10-trihydroxy-3,5,8,10,12,14-hexamethyl-15-oxo-1-oxa-6-azacyclopentadecan-11-yl)oxy)-3-hydroxy-6-methyltetrahydro-2H-pyran-4-yl)-1,3-dimethyl-3-phenylurea] | 152 | 100 |  | 57 |  |  |  |  | 
7 | CCCNC[C@]1(O)[C@H](C)O[C@@H](O[C@H]2[C@H](C)[C@@H](O[C@@H]3O[C@H](C)C[C@H](N(C)C(=O)N4Cc5ccccc5C4)[C@H]3O)[C@](C)(O)C[C@@H](C)CN[C@H](C)[C@@H](O)[C@](C)(O)[C@@H](CC)OC(=O)[C@@H]2C)C[C@@]1(C)OC [Example I-7, N-((2S,3R,4S,6R)-2-(((2R,3S,4R,5R,8R,10R,11R,12S,13S,14R)-2-ethyl-3,4,10-trihydroxy-13-(((2R,4R,5S,6S)-5-hydroxy-4-methoxy-4,6-dimethyl-5-((propylamino)methyl)tetrahydro-2H-pyran-2-yl)oxy)-3,5,8,10,12,14-hexamethyl-15-oxo-1-oxa-6-azacyclopentadecan-11-yl)oxy)-3-hydroxy-6-methyltetrahydro-2H-pyran-4-yl)-N-methylisoindoline-2-carboxamide] | 16 | 6 |  | 8 |  |  |  |  | 
8 | CC[C@H]1OC(=O)[C@H](C)[C@@H](O[C@H]2C[C@@](C)(OC)[C@](O)(CNC)[C@H](C)O2)[C@H](C)[C@@H](O[C@@H]2O[C@H](C)C[C@H](N(C)C(=O)N(C)c3ccccc3)[C@H]2O)[C@](C)(O)C[C@@H](C)CN[C@H](C)[C@@H](O)[C@]1(C)O [Example H-26, 1-((2S,3R,4S,6R)-2-(((2R,3S,4R,5R,8R,10R,11R,12S,13S,14R)-2-ethyl-3,4,10-trihydroxy-13-(((2R,4R,5S,6S)-5-hydroxy-4-methoxy-4,6-dimethyl-5-((methylamino)methyl)tetrahydro-2H-pyran-2-yl)oxy)-3,5,8,10,12,14-hexamethyl-15-oxo-1-oxa-6-azacyclopentadecan-11-yl)oxy)-3-hydroxy-6-methyltetrahydro-2H-pyran-4-yl)-1,3-dimethyl-3-phenylurea] | > 250 | 250 |  | 30 |  |  |  |  | 
